In patent publication US20240376097A1, “BCL-2 Inhibitor” (BeiGene Ltd., priority 2020, published 2024):
Where two headings read alike, the source gives them in different places.

Tests used:
[1] = biological target: Recombinant human Bcl-2 protein (Homo sapiens (Human), UniProt P10415); assay: Bcl-2 TR-FRET Assay; format: binding
Summary of the method: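 0.05 nM Bcl-2 pre-incubated 0.5 h at room temperature with 10-point compound dilutions (top final 1, 0.1, 0.02 or 0.01 uM) in 20 mM potassium phosphate pH 7.5, 50 mM NaCl, 1 mM EDTA, 0.05% Tween-20, 0.01% BSA; FITC-Bak peptide (0.5 nM) and anti-6His Tb cryptate added, 1 h. IC50 from four-parameter logistic fit.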

[2] = biological target: recombinant human Bcl-2-G101V protein (Homo sapiens (Human), UniProt P10415, G101V); assay: Bcl-2-G101V TR-FRET Assay; format: binding; settings: Bcl-2 G101V mutant, TR-FRET; read-out: Biochemical assay (IC50, nM) Bcl-2 G101V
Summary of the method: (§1)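 IC50 values derive from four-parameter logistic fitting of percent inhibition data. That inhibition of ligand binding to Bcl-2-G101V is computed from the 490 nm/520 nm TR-FRET ratio under 337 nm excitation, over a rising compound concentration series.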

[3] = tested on: recombinant human Bcl-2-G101V protein; assay: Bcl-2-G101V TR-FRET Assay; format: binding; settings: for Ratio of Bcl-2 G101V/WT: ratio of biochemical IC50 Bcl-2 G101V / Bcl-2 WT
Summary of the method: as §1

[4] = tested on: RS4;11 (BCL-2 dependent acute lymphoblastic leukemia cell line); assay: RS4;11 Cell Proliferation Assay; format: cell-based; settings: read-out: Cellular proliferation assay (IC50, nM) RS4
Summary of the method: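 RS4;11 cells, 50,000 per well in RPMI-1640 with 10% FBS, treated 48 h at 37 °C with a 10-point dilution series topping at 1 μM. Viability read by CellTiter-Glo ATP luminescence; mean IC50 reported.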

[5] = tested on: BCL-2 G101V knock-in cell line H96 (derive from RS4;11); assay: Bcl 2-G101V Knock-In RS4;11 Cell Proliferation Assay; format: cell-based; settings: RS4;11 Bcl-2 G101V knock-in clone H96, 48 hrs, CellTiter-GLO, read-out: Cellular proliferation assay (IC50, nM) RS4
Summary of the method: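 H96, a CRISPR-generated RS4;11 clone carrying BCL2-G101V knock-in (WES/RNA-seq validated), seeded 50,000 per well and exposed 48 h at 37 °C to 10-point dilutions topping at 1 or 10 μM. Viability by CellTiter-Glo luminescence; mean IC50.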

[6] = biological target: recombinant human Bcl-2 D103Y protein (Homo sapiens (Human), UniProt P10415, D103Y); assay: Bcl-2-D103Y Biochemical Assay (TR-FRET); format: binding; settings: for IC50: TR-FRET, FITC labeled Bak peptide; for Ratio of Bcl-2 D103Y/Bcl-2 WT: ratio of IC50
Summary of the method: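 Recombinant human Bcl-2 D103Y binding to its ligand measured by TR-FRET (ex 337 nm, em 490/520 nm) with increasing compound concentrations. Percent inhibition from the 490/520 nm ratio; IC50 from four-parameter logistic fit.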

[7] = Bcl-2 wild type, TR-FRET, read-out: Biochemical assay (IC50, nM) Bcl-2 WT
[8] = wild type Bcl-2, unit inferred, read-out: Bcl-2 WT
[9] = Homo sapiens, RS4-11, RS4;11 cells

2-((1H-pyrrolo[2,3-b]pyridin-5-yl) oxy)-N-((4-((((1r,4r)-4-hydroxy-4- methylcyclohexyl)methyl)amino)- 3-nitrophenyl)sulfonyl)-4-(2-((R)- 2-(2-isopropylphenyl)-4-((7- methoxybenzofuran-5-yl)methyl) piperazin-1-yl)-7-azaspiro[3.5] nonan-7-yl)benzamide [Example 280]
IC50 [1, 7]: 0.26 nM
IC50 [1, 8]: 0.26 nM
IC50 [2]: 0.56 nM
Ratio of Bcl-2 G101V/WT [3]: 2.2
IC50 ([4]; RS4;11 cells): 0.14 nM
IC50 [5]: 0.43 nM
IC50 [6]: 0.23 nM
Ratio of Bcl-2 D103Y/Bcl-2 WT [6]: 0.89

CC(C)c1ccccc1C1CN(C(C)c2ccccc2)CCN1C1CC2(CCN(c3ccc(C(=O)NS(=O)(=O)c4ccc(NC[C@H]5CC[C@](C)(O)CC5)c([N+](=O)[O-])c4)c(Oc4cnc5[nH]ccc5c4)c3)CC2)C1 (single isomer, unassigned) [Example 24b, 2-((1H-pyrrolo[2,3-b]pyridin-5-yl)oxy)-N-((4-((((1r,4r)-4-hydroxy-4-methylcyclohexyl)methyl)amino)-3-nitrophenyl)sulfonyl)-4-(2-(2-(2-isopropylphenyl)-4-(1-phenylethyl)piperazin-1-yl)-7-azaspiro[3.5]nonan-7-yl)benzamide]
IC50 [1, 7]: 0.24 nM
IC50 [1, 8]: 0.24 nM
IC50 [2]: 1.1 nM
ratio of IC50 of Bcl-2 G101V/Bcl-2 wt, compared with Example F132b in WO2019210828 and ABT-199 (venetoclax) ([3]; comparison in words): much lower
Ratio of Bcl-2 G101V/WT [3]: 4.6
IC50 ([4]; RS4;11 cells): 0.75 nM
IC50 ([5]; Homo sapiens): 6.49 nM
IC50 [6]: 0.56 nM
ratio of Bcl-2 D103Y/Bcl-2 wt, compared with F91b in WO2019210828 ([6]; comparison in words): significantly lower
Ratio of Bcl-2 D103Y/Bcl-2 WT [6]: 2.3

CC(C)c1ccccc1[C@@H]1CN(Cc2ccc(F)cc2)CCN1C1CC2(CCN(c3ccc(C(=O)NS(=O)(=O)c4ccc(NC[C@H]5CC[C@](C)(O)CC5)c([N+](=O)[O-])c4)c(Oc4cnc5[nH]ccc5c4)c3)CC2)C1 (single isomer, unassigned) [Example 28a, 2-((1H-pyrrolo[2,3-b]pyridin-5-yl)oxy)-4-(2-((R or S)-4-(4-fluorobenzyl)-2-(2-isopropylphenyl)piperazin-1-yl)-7-azaspiro[3.5]nonan-7-yl)-N-((4-((((1r,4r)-4-hydroxy-4-methylcyclohexyl)methyl)amino)-3-nitrophenyl)sulfonyl)benzamide]
IC50 [1, 7]: 0.098 nM
IC50 [1, 8]: 0.098 nM
IC50 [2]: 0.33 nM
Ratio of Bcl-2 G101V/WT [3]: 3.3
IC50 [4, 9]: 0.21 nM
IC50 ([5]; Homo sapiens): 1.23 nM
IC50 [6]: 0.2 nM
Ratio of Bcl-2 D103Y/Bcl-2 WT [6]: 2.1

COc1cc(CN2CCN(C3CC4(C3)CN(c3ccc(C(=O)NS(=O)(=O)c5ccc(NC[C@H]6CC[C@](C)(O)CC6)c([N+](=O)[O-])c5)c(Oc5cnc6[nH]cc(F)c6c5)c3)C4)[C@H](c3ccccc3C(C)C)C2)cc2c1OCCCO2 [Example 335, 2-((3-fluoro-1H-pyrrolo[2,3-b]pyridin-5-yl)oxy)-N-((4-((((1r,4r)-4-hydroxy-4-methylcyclohexyl)methyl)amino)-3-nitrophenyl)sulfonyl)-4-(6-((R)-2-(2-isopropylphenyl)-4-((9-methoxy-3,4-dihydro-2H-benzo[b][1,4]dioxepin-7-yl)methyl)piperazin-1-yl)-2-azaspiro[3.3]heptan-2-yl) benzamide]
IC50 [1, 7]: 0.06 nM
IC50 [2]: 0.15 nM
Ratio of Bcl-2 G101V/WT [3]: 2.6
IC50 [4, 9]: 0.17 nM
IC50 ([5]; Homo sapiens): 0.34 nM

COc1cc(CN2CCN(C3CC4(C3)CN(c3ccc(C(=O)NS(=O)(=O)c5ccc(NC[C@H]6CC[C@](C)(O)CC6)c([N+](=O)[O-])c5)c(Oc5cnc6[nH]ccc6c5)c3)C4)[C@H](c3ccccc3C(C)C)C2)cc2c1OC(C)(C)CC2 [Example 336, 2-((1H-pyrrolo[2,3-b]pyridin-5-yl)oxy)-N-((4-((((1r,4r)-4-hydroxy-4-methylcyclohexyl)methyl)amino)-3-nitrophenyl)sulfonyl)-4-(6-((R)-2-(2-isopropylphenyl)-4-((8-methoxy-2,2-dimethylchroman-6-yl)methyl)piperazin-1-yl)-2-azaspiro[3.3]heptan-2-yl) benzamide]
IC50 [1, 7]: 0.09 nM
IC50 [2]: 0.38 nM
Ratio of Bcl-2 G101V/WT [3]: 4.2
IC50 [4, 9]: 0.2 nM
IC50 ([5]; Homo sapiens): 1.1 nM

COc1cc(CN2CCN(C3CC4(C3)CN(c3ccc(C(=O)NS(=O)(=O)c5ccc(NC[C@H]6CC[C@](C)(O)CC6)c([N+](=O)[O-])c5)c(Oc5cnc6[nH]cc(F)c6c5)c3)C4)[C@H](c3ccccc3C(C)C)C2)ccc1C1CCC1 [Example 341, 4-(6-((R)-4-(4-cyclobutyl-3-methoxybenzyl)-2-(2-isopropylphenyl)piperazin-1-yl)-2-azaspiro[3.3]heptan-2-yl)-2-((3-fluoro-1H-pyrrolo[2,3-b]pyridin-5-yl)oxy)-N-((4-((((1r,4r)-4-hydroxy-4-methylcyclohexyl)methyl)amino)-3-nitrophenyl)sulfonyl)benzamide]
IC50 [1, 7]: 1.6 nM
IC50 [2]: 4.5 nM
Ratio of Bcl-2 G101V/WT [3]: 2.8
IC50 [4, 9]: 0.12 nM
IC50 ([5]; Homo sapiens): 0.68 nM

COc1cc(CN2CCN(C3CC4(C3)CN(c3ccc(C(=O)NS(=O)(=O)c5ccc(NC[C@H]6CC[C@](C)(O)CC6)c([N+](=O)[O-])c5)c(Oc5cnc6[nH]ccc6c5)c3)C4)[C@H](c3ccccc3C(C)C)C2)ccc1C1CCC1 [Example 342, 2-((1H-pyrrolo[2,5-b]pyridin-5-yl)oxy)-4-(6-((R)-4-(4-cyclobutyl-3-methoxybenzyl)-2-(2-isopropylphenyl)piperazin-1-yl)-2-azaspiro[3.3]heptan-2-yl)-N-((4-((((1r,4r)-4-hydroxy-4-methylcyclohexyl)methyl)amino)-3-nitrophenyl)sulfonyl)benzamide]
IC50 [1, 7]: 0.97 nM
IC50 [2]: 3.3 nM
Ratio of Bcl-2 G101V/WT [3]: 2.9
IC50 [4, 9]: 0.28 nM
IC50 ([5]; Homo sapiens): 2 nM

COC12CC3CC(CC(CN4CCN(C5CC6(C5)CN(c5ccc(C(=O)NS(=O)(=O)c7ccc(NC[C@H]8CC[C@](C)(O)CC8)c([N+](=O)[O-])c7)c(Oc7cnc8[nH]cc(F)c8c7)c5)C6)[C@H](c5ccccc5C(C)C)C4)(C3)C1)C2 [Example 352]
IC50 [1, 7]: 0.52 nM
IC50 [2]: 2.2 nM
Ratio of Bcl-2 G101V/WT [3]: 4.2
IC50 [4, 9]: 0.45 nM
IC50 ([5]; Homo sapiens): 4.56 nM

COc1cc(CN2CCN(C3CC4(C3)CN(c3ccc(C(=O)NS(=O)(=O)c5ccc(NC[C@H]6CC[C@](C)(O)CC6)c([N+](=O)[O-])c5)c(Oc5cnc6[nH]cc(F)c6c5)c3)C4)[C@H](c3ccccc3C(C)C)C2)cc2c1OCCC2(F)F [Example 354, 4-(6-((R)-4-((4,4-difluoro-8-methoxychroman-6-yl)methyl)-2-(2-isopropylphenyl)piperazin-1-yl)-2-azaspiro[3.3]heptan-2-yl)-2-((3-fluoro-1H-pyrrolo[2,3-b]pyridin-5-yl)oxy)-N-((4-((((1r,4r)-4-hydroxy-4-methylcyclohexyl)methyl)amino)-3-nitrophenyl)sulfonyl)benzamide]
IC50 [1, 7]: 0.9 nM
IC50 [2]: 1.9 nM
Ratio of Bcl-2 G101V/WT [3]: 2.2
IC50 [4, 9]: 0.14 nM
IC50 ([5]; Homo sapiens): 3 nM

COc1ccc(CN2CCN(C3CC4(C3)CN(c3ccc(C(=O)NS(=O)(=O)c5ccc(NCC67CC8CC(C6)C(OC)C(C8)C7)c([N+](=O)[O-])c5)c(Oc5cnc6[nH]cc(F)c6c5)c3)C4)[C@H](c3ccccc3C(C)C)C2)cc1 (stereo partly drawn) [Example 356, 2-((3-fluoro-1H-pyrrolo[2,3-b]pyridin-5-yl)oxy)-4-(6-((R)-2-(2-isopropylphenyl)-4-(4-methoxybenzyl)piperazin-1-yl)-2-azaspiro[3.3]heptan-2-yl)-N-((4-((((1S,3R,7S)-4-methoxyadamantan-1-yl)methyl)amino)-3-nitrophenyl)sulfonyl) benzamide]
IC50 [1, 7]: 1.5 nM
IC50 [2]: 4.2 nM
Ratio of Bcl-2 G101V/WT [3]: 2.9
IC50 [4, 9]: 0.31 nM
IC50 ([5]; Homo sapiens): 1.7 nM

CC(C)c1ccccc1[C@@H]1CN(Cc2ccc(N3CCOCC3)cc2)CCN1C1CC2(C1)CN(c1ccc(C(=O)NS(=O)(=O)c3ccc(NC[C@H]4CC[C@](C)(O)CC4)c([N+](=O)[O-])c3)c(Oc3cnc4[nH]cc(F)c4c3)c1)C2 [Example 368]
IC50 [1, 7]: 0.064 nM
IC50 [2]: 0.29 nM
Ratio of Bcl-2 G101V/WT [3]: 4.5
IC50 [4, 9]: 0.096 nM
IC50 ([5]; Homo sapiens): 0.24 nM
